Results as given in patent publication US11882835B2, “Benzimidazole compound having an optionally halogenated alkylenedioxy group or salt thereof, agricultural and horticultural insecticide comprising the compound or the salt, and method for using the insecticide” (NIHON NOHYAKU CO., LTD., priority 2018, dated 2024).

Experiments:
Laodelphax striatellus = assay: Insecticidal test on Laodelphax striatellus (rice seedling dip); conditions: in Oryza sativa, 192 h, read-out: activity level (corrected mortality rate) of L. striatellus
Haemonchus contortus = assay: Larval motility assay on Haemonchus contortus; format: in vivo; conditions: 96 h, 4 days, relative to DMSO only, read-out: percent motility inhibition, H. contortus L1 stage larvae
Procedure: Larval motility assay on Haemonchus contortus DMSO diluted solutions of various compounds of the present invention were added at the final concentration of 50 ppm to the wells of a 96-well plate containing a predetermined conditioned medium. Twenty L1 stage larvae of H. contortus were introduced into each well of the 96-well plate. The plate was allowed to stand for 4 days, and then larval motility was examined. The percent motility inhibition in the wells of each treatment was calculated relative to the wells of treatment with DMSO only.

Dirofilaria immitis = assay: Larval motility assay on Dirofilaria immitis; format: in vivo; conditions: 72 h, 3 days, relative to DMSO only, read-out: percent motility inhibition, D. immitis L1 stage larvae
Procedure: Larval Motility Assay on Dirofilaria immitis
Five hundred L1 stage larvae of D. immitis were diluted in a predetermined conditioned medium and introduced into each well of a 96-well plate. DMSO diluted solutions of various compounds of the present invention were added at the final concentration of 50 ppm to the wells of the 96-well plate. The plate was allowed to stand for 3 days, and then larval motility was examined. The percent motility inhibition in the wells of each treatment was calculated relative to the wells of treatment with DMSO only.

Ctenocephalides felis = assay: Assay for oral parasiticidal activity against adults of Ctenocephalides felis; format: in vivo; conditions: read-out: mortality rate, adults of C. felis
Procedure: Assay for Oral Parasiticidal Activity Against Adults of Ctenocephalides felis
Newly-emerged adults of C. felis were placed into test cages (10 adults per test cage). DMSO diluted solutions of various compounds of the present invention were added to aliquots of bovine blood at the final concentration of 50 ppm and orally administered to the adults of C. felis using a feeder. The mortality rate was examined on the following day. Aberrant adults were regarded as the dead.

Rhipicephalus sanguineus = assay: Assay for transdermal parasiticidal activity against nymphs of Rhipicephalus sanguineus; format: in vivo; conditions: 48 h, read-out: mortality rate, nymphs of R. sanguineus
Source text: Assay for Transdermal Parasiticidal Activity Against Nymphs of Rhipicephalus sanguineus
DMSO diluted solutions of various compounds of the present invention were individually diluted to the final concentration of 100 ppm with an acetone/triton solution and applied to the inside of vented sample bottles. After overnight drying, ten nymphs of R. sanguineus were introduced into each bottle, and the mortality rate was examined two days later. Aberrant adults were regarded as the dead.

Plutella xylostella = assay: whole plant or invertebrate; conditions: in Brassica rapa, 144 h, read-out: activity level (corrected mortality rate) of P. xylostella

In the case of `CCS(=O)(=O)c1cc(C2CC2)cnc1-c1nc2cc3c(cc2n1C)OC(F)(F)O3` [Compound 1-3, 6-(5-cyclopropyl-3-ethylsulfonyl-pyridin-2-yl)-2,2-difluoro-5-methyl-5H-[1,3]dioxolo[4′,5′:4,5]benzo[1,2-d]imidazole], the mortality at 500 ppm (Laodelphax striatellus) is reported as 100%, the inhibition at 50 ppm (Haemonchus contortus) is reported as at least 50% and the inhibition at 50 ppm (Dirofilaria immitis) is reported as at least 50%. It also gave a mortality at 50 ppm (Ctenocephalides felis) of at least 50%, a mortality at 100 ppm (Rhipicephalus sanguineus) of at least 50% and a mortality at 500 ppm (Plutella xylostella) of 100%.

In the case of `CCSc1cc(C2CC2)cnc1-c1nc2cc3c(cc2n1C(F)F)OC(F)(F)O3` [Compound 1-7, 6-(5-cyclopropyl-3-ethylthiopyridin-2-yl)-2,2-difluoro-5-di fluoromethyl-5H-[1,3]dioxolo[4′,5′:4,5]benzo[1,2-d]imidazole], the mortality at 500 ppm (Plutella xylostella) is reported as 100%.

`CCS(=O)(=O)c1cc(C2CC2)cnc1-c1nc2cc3c(cc2n1C(F)F)OC(F)(F)O3` [Compound 1-9, 6-(5-cyclopropyl-3-ethylsulfonylpyridin-2-yl)-2,2-difluoro-5-difluoromethyl-5H-[1,3]dioxolo[4′,5′:4,5]benzo[1,2-d]imid azole] gave a mortality at 500 ppm (Plutella xylostella) of 100%.

`CCSc1cc(C2CC2)cnc1-c1nc2cc3c(cc2n1C)OC(F)(F)O3` [Compound 1-1, 6-(5-cyclopropyl-3-ethylthiopyridin-2-yl)-2,2-difluoro-5-me thyl-5H-[1,3]dioxolo[4′,5′:4,5]benzo[1,2-d]imidazole] showed a mortality at 500 ppm (Laodelphax striatellus) of 100% and a mortality at 500 ppm (Plutella xylostella) of 100%.
